Tests used:
[1] = target: T1, Phosphatidylinositol 4,5-bisphosphate 3-kinase catalytic subunit delta isoform (Homo sapiens, UniProt O00329); assay: Inhibition of PI3Kdelta (unknown origin) using PIP2 as substrate preincubated for 10 mins followed by substrate addition and measured after 1 hr by ELISA
T1 sequence (O00329 whole entry): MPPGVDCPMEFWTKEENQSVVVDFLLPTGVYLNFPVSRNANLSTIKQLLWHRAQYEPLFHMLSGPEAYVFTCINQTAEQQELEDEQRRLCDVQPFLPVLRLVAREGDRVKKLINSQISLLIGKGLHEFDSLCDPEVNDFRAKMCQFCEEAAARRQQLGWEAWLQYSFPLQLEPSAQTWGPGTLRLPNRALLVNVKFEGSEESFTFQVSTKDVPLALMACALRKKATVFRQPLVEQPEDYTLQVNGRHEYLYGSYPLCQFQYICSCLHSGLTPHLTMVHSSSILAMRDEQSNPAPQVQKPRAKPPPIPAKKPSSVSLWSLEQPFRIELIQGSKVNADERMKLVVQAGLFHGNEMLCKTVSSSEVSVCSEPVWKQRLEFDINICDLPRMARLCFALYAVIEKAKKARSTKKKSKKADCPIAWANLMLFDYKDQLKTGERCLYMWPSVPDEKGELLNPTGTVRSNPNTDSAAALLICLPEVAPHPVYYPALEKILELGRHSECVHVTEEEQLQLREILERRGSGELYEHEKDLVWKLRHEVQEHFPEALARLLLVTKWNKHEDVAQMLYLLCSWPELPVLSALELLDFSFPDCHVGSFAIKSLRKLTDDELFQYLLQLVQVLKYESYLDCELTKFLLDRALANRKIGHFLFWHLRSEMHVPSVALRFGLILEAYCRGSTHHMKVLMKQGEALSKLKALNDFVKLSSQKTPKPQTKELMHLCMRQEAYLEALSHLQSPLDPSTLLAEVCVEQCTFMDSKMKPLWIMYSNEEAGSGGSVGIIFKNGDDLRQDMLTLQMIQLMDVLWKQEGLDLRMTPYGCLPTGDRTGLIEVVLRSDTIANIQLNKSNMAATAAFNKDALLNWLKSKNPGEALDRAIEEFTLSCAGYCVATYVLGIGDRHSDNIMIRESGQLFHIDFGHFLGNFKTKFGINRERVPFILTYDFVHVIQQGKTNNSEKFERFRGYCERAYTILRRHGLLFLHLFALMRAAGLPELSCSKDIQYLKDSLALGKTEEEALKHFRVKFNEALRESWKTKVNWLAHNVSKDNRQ

MCF7 [2] = assay: Induction of cell cycle arrest in human MCF7 cells assessed as accumulation of cells at G1 phase at IC50 concentration by Propidium iodide staining based flow cytometric analysis (reference value: 61.45%); format: functional
MCF7 [3] = assay: Antiproliferative activity against human MCF7 cells assessed as inhibition of cell growth incubated for 48 hrs by MTT assay; format: functional, cell-based; conditions: MCF7, 48 h
MCF7 [4] = assay: Induction of apoptosis in human MCF7 cells assessed as necrotic cells at 0.72 uM after 48 hrs by annexin V-FITC/propidium iodide staining based flow cytometric analysis (reference value: 1.26%); format: functional
[5] = target: Phosphatidylinositol 4,5-bisphosphate 3-kinase catalytic subunit beta isoform (Homo sapiens, UniProt P42338); assay: Inhibition of PI3Kbeta (unknown origin) using PIP2 as substrate preincubated for 10 mins followed by substrate addition and measured after 1 hr by ELISA
Chain of Phosphatidylinositol 4,5-bisphosphate 3-kinase catalytic subunit beta isoform (P42338 whole entry, canonical isoform): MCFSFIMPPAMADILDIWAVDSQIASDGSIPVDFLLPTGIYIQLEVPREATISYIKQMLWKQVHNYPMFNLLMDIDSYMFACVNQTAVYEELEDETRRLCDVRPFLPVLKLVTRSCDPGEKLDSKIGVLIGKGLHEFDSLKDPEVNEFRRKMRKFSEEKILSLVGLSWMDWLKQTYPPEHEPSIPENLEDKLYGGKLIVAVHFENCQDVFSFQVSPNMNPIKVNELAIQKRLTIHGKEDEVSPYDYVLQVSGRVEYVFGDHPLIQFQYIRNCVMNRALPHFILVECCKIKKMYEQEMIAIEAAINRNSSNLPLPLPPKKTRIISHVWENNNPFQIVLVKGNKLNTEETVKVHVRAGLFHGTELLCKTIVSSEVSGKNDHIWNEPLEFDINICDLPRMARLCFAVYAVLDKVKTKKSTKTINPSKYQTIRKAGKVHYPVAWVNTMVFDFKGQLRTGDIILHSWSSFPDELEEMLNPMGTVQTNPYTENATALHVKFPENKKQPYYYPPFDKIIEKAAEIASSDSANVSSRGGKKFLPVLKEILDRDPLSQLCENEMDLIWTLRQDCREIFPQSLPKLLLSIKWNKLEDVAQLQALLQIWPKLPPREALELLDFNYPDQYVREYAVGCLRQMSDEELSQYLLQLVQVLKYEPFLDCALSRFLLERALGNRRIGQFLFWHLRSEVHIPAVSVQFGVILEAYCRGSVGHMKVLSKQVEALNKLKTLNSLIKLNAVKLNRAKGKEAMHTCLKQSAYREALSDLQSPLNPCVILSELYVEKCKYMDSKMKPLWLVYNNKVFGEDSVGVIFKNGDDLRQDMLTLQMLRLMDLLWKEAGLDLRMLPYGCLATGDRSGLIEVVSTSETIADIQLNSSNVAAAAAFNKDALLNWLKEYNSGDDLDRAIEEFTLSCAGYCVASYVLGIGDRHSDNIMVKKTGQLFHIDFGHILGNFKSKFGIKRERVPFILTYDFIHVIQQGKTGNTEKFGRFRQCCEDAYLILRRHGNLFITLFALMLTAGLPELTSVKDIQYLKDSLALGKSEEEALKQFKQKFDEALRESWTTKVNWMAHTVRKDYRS

MCF7 [6] = assay: Induction of cell cycle arrest in human MCF7 cells assessed as accumulation of cells at G2/M phase at IC50 concentration by Propidium iodide staining based flow cytometric analysis (reference value: 10.94%); format: functional
[7] = Selectivity index, ratio of IC50 for human MCF-10A cells to IC50 for human MCF7 cells; format: toxicity; conditions: MCF-10A cells versus MCF7 cells, read-out: Ratio IC50
[8] = target: Phosphatidylinositol 4,5-bisphosphate 3-kinase catalytic subunit alpha isoform (Homo sapiens, UniProt P42336); assay: Inhibition of PI3Kalpha (unknown origin) using PIP2 as substrate preincubated for 10 mins followed by substrate addition and measured after 1 hr by ELISA
Chain of Phosphatidylinositol 4,5-bisphosphate 3-kinase catalytic subunit alpha isoform (P42336 whole entry, canonical isoform): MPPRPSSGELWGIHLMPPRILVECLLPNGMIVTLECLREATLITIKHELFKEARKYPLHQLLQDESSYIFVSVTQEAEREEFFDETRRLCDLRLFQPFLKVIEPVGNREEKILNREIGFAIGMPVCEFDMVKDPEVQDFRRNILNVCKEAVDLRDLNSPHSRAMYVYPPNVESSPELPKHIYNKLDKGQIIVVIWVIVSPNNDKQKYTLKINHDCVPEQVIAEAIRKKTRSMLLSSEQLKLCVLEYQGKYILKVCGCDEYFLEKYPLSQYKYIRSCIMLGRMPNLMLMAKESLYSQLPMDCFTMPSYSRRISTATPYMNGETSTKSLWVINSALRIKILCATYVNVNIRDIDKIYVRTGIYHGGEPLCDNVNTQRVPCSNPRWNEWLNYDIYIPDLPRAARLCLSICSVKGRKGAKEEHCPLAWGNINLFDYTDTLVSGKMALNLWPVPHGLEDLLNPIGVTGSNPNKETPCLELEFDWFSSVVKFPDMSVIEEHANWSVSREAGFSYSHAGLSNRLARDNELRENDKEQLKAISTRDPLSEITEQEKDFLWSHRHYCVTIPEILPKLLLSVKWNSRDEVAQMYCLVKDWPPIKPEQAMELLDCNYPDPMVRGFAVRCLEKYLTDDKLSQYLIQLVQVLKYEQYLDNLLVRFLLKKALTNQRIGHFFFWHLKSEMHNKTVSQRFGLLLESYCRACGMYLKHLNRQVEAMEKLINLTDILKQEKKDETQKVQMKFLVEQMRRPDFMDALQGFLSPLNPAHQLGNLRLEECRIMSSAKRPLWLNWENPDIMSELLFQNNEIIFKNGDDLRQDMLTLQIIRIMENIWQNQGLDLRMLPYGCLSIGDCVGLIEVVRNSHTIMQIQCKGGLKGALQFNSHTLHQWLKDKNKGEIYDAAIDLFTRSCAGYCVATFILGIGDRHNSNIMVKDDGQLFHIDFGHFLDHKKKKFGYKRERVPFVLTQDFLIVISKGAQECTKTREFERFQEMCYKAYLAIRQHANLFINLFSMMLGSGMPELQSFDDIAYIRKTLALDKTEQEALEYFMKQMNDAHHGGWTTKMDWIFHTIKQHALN

MCF7 [9] = assay: Induction of apoptosis in human MCF7 cells assessed as late apoptotic cells at 0.72 uM after 48 hrs by annexin V-FITC/propidium iodide staining based flow cytometric analysis (reference value: 0.14%); format: functional
MCF7 [10] = assay: Induction of cell cycle arrest in human MCF7 cells assessed as accumulation of cells at G phase at IC50 concentration by Propidium iodide staining based flow cytometric analysis (reference value: 1.76%); format: functional
MCF7 [11] = assay: Cytotoxicity against human MCF7 cells assessed as growth inhibition at 10 uM after 48 hrs by sulforhodamine B assay; format: functional; conditions: read-out: GI
MCF7 [12] = assay: Induction of cell cycle arrest in human MCF7 cells assessed as accumulation of cells at S phase at IC50 concentration by Propidium iodide staining based flow cytometric analysis (reference value: 27.61%); format: functional
MCF-10A = assay: Cytotoxicity against human MCF10A cells assessed as inhibition of cell growth incubated for 48 hrs by MTT assay; format: cell-based
MCF7 [13] = assay: Induction of apoptosis in human MCF7 cells assessed as early apoptotic cells at 0.72 uM after 48 hrs by annexin V-FITC/propidium iodide staining based flow cytometric analysis (reference value: 0.36%); format: functional

O=S(=O)(Oc1ccc(/C=N/N=c2\scc(-c3ccccc3)n2-c2ccccc2)cc1)C(F)(F)C(F)(F)C(F)(F)C(F)(F)F
IC50 [1]: 7.9 µM
Activity (MCF7 [2]): 49.27%
IC50 (MCF7 [3]): 0.72 µM
Activity (MCF7 [4]): 14.32%
IC50 [5]: 2.3 µM
Activity (MCF7 [6]): 7.61%
selectivity ratio [7]: 39.2
IC50 [8]: 5.8 µM
Activity (MCF7 [9]): 21.88%
Activity (MCF7 [10]): 42.38%
inhibition of growth at 10 µM (MCF7 [11]): 65.5%
Activity (MCF7 [12]): 43.12%
IC50 (MCF-10A): 28.2 µM
Activity (MCF7 [13]): 6.18%

— ChEMBL document CHEMBL5055672, “Design, Synthesis, Biological Evaluation, and Computational Studies of Novel Fluorinated Candidates as PI3K Inhibitors: Targeting Fluorophilic Binding Sites” (J Med Chem, 2021)
